“And” between values parts separate entries of the source, which are not always exact repeats. Equal entries are not always repeated.
Tests used:
[1] = tested on: A375 human melanoma cells; assay: Cytotoxicity assay (MTT relative viability), A375 cells; type: cell-based; conditions: BSG and BO applied together, 72 hours, FIGS. 1A and 1B
Procedure: (§1) A375 human melanoma cells (obtained from Food Industry Research and Development Institute, Hsinchu, Taiwan, R.O.C. under accession number CCRC 60039) and normal human keratinocyte (HaCaT) cells (obtained from Dr. Lin P., Institute of Medical & Molecular Toxicology, Chung Shan Medical University, Taichung, Taiwan) were used for the test.
(§2) A375 and HaCaT cells were incubated in 96-well plates (Corning Incorporated COSTAR® 3599) at a density of 3×10^3 cells/well and 5×10^3 cells/well, respectively. After 24 hours, the cells were treated with various concentrations of bismuth subgallate (BSG) and borneol (BO) for 72 hours. The cytotoxicity effect of BSG and BO was estimated by the relative viability (%) of the cells, which was determined by measuring the reduction of tetrazolium salt MTT using a Microplate reader (Thermo Lab systems Multishkan Spectrum) at a test wavelength of 550 nm and a reference wavelength of 690 nm. The relative viability is calculated by the following equation: Relative Viability(%)=ODtestODcontrol×100 The results are represented by the means plus standard errors (Mean±SE) of five repetitions.

[2] = tested on: normal human keratinocyte (HaCaT) cells; assay: Cytotoxicity assay (MTT relative viability), HaCaT cells; type: cell-based; conditions: BSG and BO applied together, 72 hours, FIG. 2
Procedure: as §1, §2

Compound	lowest concentration at which reduction of relative viability of A375 cells is observed [1]	concentrations at which cytotoxicity effect on HaCaT cells is observed (only at high concentrations) [2]
CC1(C)C2CCC1(C)C(O)C2 (stereo not drawn) [BO, borneol]	2.5 µg/mL	
bismuth subgallate [BSG]	17.5 µg/mL	140 µg/mL and 280 µg/mL

Reference: US20070225364A1, “Use of bismuth subgallate and borneol in treating melanoma” (HEDONIST BIOCHEMICAL TECHNOLOGIES CO., LTD., priority 2006, published 2007)
